Data on nine cell lines can be found in the supplement of paper PMC10307832.

Common to all, as to assay: relative viability (nuclei count vs DMSO), 5 days (fraction); higher = more cells survive
Compound in assay [1]: COc1cc(-c2nn([C@H]3CC[C@H](N4CCN(C(C)=O)CC4)CC3)c3ncnc(N)c23)ccc1NC(=O)c1cc2ccccc2n1C + CS(=O)(=O)N1CCN(Cc2cc3nc(-c4cccc5[nH]ncc45)nc(N4CCOCC4)c3s2)CC1 [Pictilisib] (partner 1 µM)
The method in brief:
(§1)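 Medians of duplicate plates are given as relative viability. That measure is the nuclei count in treated wells divided by the count in vehicle wells. Counts were taken on 4× images of lung cancer cell lines in 1536-well plates, 5 days after pin-tool dosing the day after seeding with one drug alone or a fixed anchor-drug dose plus five library-drug doses (not always all listed) in √10 steps.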

Compound in assay [2]: COc1cc(-c2nn([C@H]3CC[C@H](N4CCN(C(C)=O)CC4)CC3)c3ncnc(N)c23)ccc1NC(=O)c1cc2ccccc2n1C + O=C(CCCCCCC(=O)Nc1ccccc1)NO [Vorinostat] (partner 1 µM)
An outline of the steps:
as §1

Compound in assay [3]: CO[C@@H]1[C@H](N(C)C(=O)c2ccccc2)C[C@H]2O[C@]1(C)n1c3ccccc3c3c4c(c5c6ccccc6n2c5c31)C(=O)NC4 [Midostaurin] + N=C(N)NC(=N)NCCc1ccccc1 [Phenformin] (partner 250 µM)
An outline of the steps: as §1

Compound in assay [4]: COc1cc(-c2nn([C@H]3CC[C@H](N4CCN(C(C)=O)CC4)CC3)c3ncnc(N)c23)ccc1NC(=O)c1cc2ccccc2n1C + Cc1cc(Nc2cc(N3CCN(C)CC3)nc(Sc3ccc(NC(=O)C4CC4)cc3)n2)n[nH]1 [Tozasertib] (partner 0.1 µM)
An outline of the steps: as §1

Compound in assay [5]: COc1cc(-c2nn([C@H]3CC[C@H](N4CCN(C(C)=O)CC4)CC3)c3ncnc(N)c23)ccc1NC(=O)c1cc2ccccc2n1C + CC(=O)Nc1cccc(-n2c(=O)n(C3CC3)c(=O)c3c(Nc4ccc(I)cc4F)n(C)c(=O)c(C)c32)c1 [Trametinib] (partner 0.02 µM)
An outline of the steps: as §1

Consider 201T, for which the relative viability in assay [1] (first compound 0.0128 µM) was 0.729; in assay [1] (first compound 0.04048 µM), 0.639; in assay [1] (first compound 0.128 µM), 0.571; in assay [1] (first compound 1.28 µM), 0.432; in assay [2] (first compound 0.0128 µM) it was 1.01; in assay [2] (first compound 0.04048 µM) it was 1.1. In addition, the relative viability in assay [2] (first compound 0.128 µM) was 0.909; in assay [2] (first compound 1.28 µM), 0.654; in assay [3] (first compound 0.01 µM), 0.447; in assay [3] (first compound 0.03162 µM), 0.423; in assay [3] (first compound 0.1 µM) it was 0.468; in assay [3] (first compound 0.3162 µM), 0.47. Besides, the relative viability in assay [4] (first compound 0.0128 µM) stood at 1; in assay [4] (first compound 0.04048 µM) it was 0.949; in assay [4] (first compound 0.128 µM) it was 0.854; in assay [4] (first compound 1.28 µM), 0.523; in assay [5] (first compound 0.0128 µM), 0.743; in assay [5] (first compound 0.04048 µM), 0.727. Moreover, the results for the relative viability in assay [5] (first compound 0.128 µM) and in assay [5] (first compound 1.28 µM) were 0.695 and 0.585, respectively.

Take A549: the relative viability in assay [1] (first compound 0.0128 µM) worked out at 0.538; in assay [1] (first compound 0.04048 µM), 0.63; in assay [1] (first compound 0.128 µM), 0.429; in assay [1] (first compound 1.28 µM), 0.501; in assay [3] (first compound 0.01 µM), 0.139; in assay [3] (first compound 0.03162 µM), 0.126. Besides, the relative viability was 0.166 in assay [3] (first compound 0.1 µM) and 0.209 in assay [3] (first compound 0.3162 µM).

On to A-427, for which the relative viability in assay [1] (first compound 0.0128 µM) was 0.652; in assay [1] (first compound 0.04048 µM), 0.127; in assay [1] (first compound 0.128 µM), 0.703; in assay [1] (first compound 1.28 µM) it was 0.493; in assay [2] (first compound 0.0128 µM), 0.9; in assay [2] (first compound 0.04048 µM), 0.972. Moreover, the relative viability in assay [2] (first compound 0.128 µM) turned out to be 0.763; in assay [2] (first compound 1.28 µM), 0.856; in assay [3] (first compound 0.01 µM), 0.296; in assay [3] (first compound 0.03162 µM) it was 0.34; in assay [3] (first compound 0.1 µM), 0.289; in assay [3] (first compound 0.3162 µM) it was 0.25. Also, the relative viability is 0.221 in assay [4] (first compound 0.0128 µM); 0.222 in assay [4] (first compound 0.128 µM); 0.185 in assay [4] (first compound 1.28 µM); 0.82 in assay [5] (first compound 0.0128 µM); 0.462 in assay [5] (first compound 0.04048 µM); 0.759 in assay [5] (first compound 0.128 µM). In addition, in assay [5] (first compound 1.28 µM), the relative viability turned out to be 0.711.

On to ABC-1, for which the relative viability in assay [1] (first compound 0.0128 µM) is 0.805; in assay [1] (first compound 0.04048 µM), 0.648; in assay [1] (first compound 0.128 µM) it was 0.613; in assay [1] (first compound 1.28 µM) it was 0.631; in assay [2] (first compound 0.0128 µM), 1.21; in assay [2] (first compound 0.04048 µM) it was 0.965. The relative viability in assay [2] (first compound 0.128 µM) is 1.19; in assay [2] (first compound 1.28 µM) it was 1.14; in assay [3] (first compound 0.01 µM), 0.23; in assay [3] (first compound 0.03162 µM), 0.242; in assay [3] (first compound 0.1 µM), 0.233; in assay [3] (first compound 0.3162 µM) it was 0.228. Also, the relative viability in assay [4] (first compound 0.0128 µM) came to 0.151; in assay [4] (first compound 0.04048 µM), 0.205; in assay [4] (first compound 0.128 µM) it was 0.176; in assay [4] (first compound 1.28 µM) it was 0.154.

Take BEN: the relative viability in assay [1] (first compound 0.0128 µM) was 0.559; in assay [1] (first compound 0.04048 µM) it was 0.54; in assay [1] (first compound 0.128 µM), 0.58; in assay [1] (first compound 1.28 µM), 0.432; in assay [2] (first compound 0.0128 µM) it was 0.591; in assay [2] (first compound 0.04048 µM) it was 0.561. Besides, the relative viability in assay [2] (first compound 0.128 µM) stood at 0.59; in assay [2] (first compound 1.28 µM), 0.483; in assay [3] (first compound 0.01 µM), 0.298; in assay [3] (first compound 0.03162 µM), 0.235; in assay [3] (first compound 0.1 µM), 0.245; in assay [3] (first compound 0.3162 µM), 0.243. Further, the relative viability came out at 0.56 in assay [4] (first compound 0.0128 µM); 0.569 in assay [4] (first compound 0.04048 µM); 0.518 in assay [4] (first compound 0.128 µM); 0.432 in assay [4] (first compound 1.28 µM); 1.07 in assay [5] (first compound 0.0128 µM); 0.97 in assay [5] (first compound 0.04048 µM). The relative viability in assay [5] (first compound 0.128 µM) stood at 0.953; in assay [5] (first compound 1.28 µM) it was 0.838.

For the cell line CAL-12T, the relative viability stood at 0.392 in assay [1] (first compound 0.0128 µM); 0.397 in assay [1] (first compound 0.04048 µM); 0.512 in assay [1] (first compound 0.128 µM); 0.281 in assay [1] (first compound 1.28 µM); 0.871 in assay [2] (first compound 0.0128 µM); 0.706 in assay [2] (first compound 0.04048 µM). Moreover, the relative viability in assay [2] (first compound 0.128 µM) turned out to be 0.702; in assay [2] (first compound 1.28 µM), 0.753; in assay [3] (first compound 0.01 µM), 0.666; in assay [3] (first compound 0.03162 µM) it was 0.527; in assay [3] (first compound 0.1 µM) it was 0.438; in assay [3] (first compound 0.3162 µM), 0.275. For the same cell line, the relative viability in assay [4] (first compound 0.0128 µM) came out at 0.29; in assay [4] (first compound 0.04048 µM), 0.275; in assay [4] (first compound 0.128 µM), 0.221; in assay [4] (first compound 1.28 µM) it was 0.178; in assay [5] (first compound 0.0128 µM) it was 0.331; in assay [5] (first compound 0.04048 µM), 0.289. For the same cell line, the relative viability is 0.349 in assay [5] (first compound 0.128 µM) and 0.326 in assay [5] (first compound 1.28 µM).

As to COR-L23, the relative viability in assay [1] (first compound 0.0128 µM) came to 0.919; in assay [1] (first compound 0.04048 µM), 0.666; in assay [1] (first compound 0.128 µM) it was 0.801; in assay [1] (first compound 1.28 µM), 0.839; in assay [2] (first compound 0.0128 µM) it was 0.528; in assay [2] (first compound 0.04048 µM), 0.615. Further, the relative viability in assay [2] (first compound 0.128 µM) came to 0.42; in assay [2] (first compound 1.28 µM), 0.558; in assay [3] (first compound 0.01 µM), 0.446; in assay [3] (first compound 0.03162 µM), 0.411; in assay [3] (first compound 0.1 µM), 0.418; in assay [3] (first compound 0.3162 µM), 0.388. For the same cell line, the relative viability in assay [4] (first compound 0.0128 µM) worked out at 0.246; in assay [4] (first compound 0.04048 µM), 0.217; in assay [4] (first compound 0.128 µM) it was 0.147; in assay [4] (first compound 1.28 µM), 0.133; in assay [5] (first compound 0.0128 µM), 0.585; in assay [5] (first compound 0.04048 µM), 0.25. Also, the figures for the relative viability in assay [5] (first compound 0.128 µM) and in assay [5] (first compound 1.28 µM) were 0.564 and 0.592, respectively.

For COR-L 105, the relative viability was 0.417 in assay [1] (first compound 0.0128 µM); 0.427 in assay [1] (first compound 0.04048 µM); 0.321 in assay [1] (first compound 0.128 µM); 0.243 in assay [1] (first compound 1.28 µM); 0.75 in assay [2] (first compound 0.0128 µM); 1.04 in assay [2] (first compound 0.04048 µM). The relative viability was 0.907 in assay [2] (first compound 0.128 µM); 0.584 in assay [2] (first compound 1.28 µM); 0.535 in assay [3] (first compound 0.01 µM); 0.44 in assay [3] (first compound 0.03162 µM); 0.473 in assay [3] (first compound 0.1 µM); 0.389 in assay [3] (first compound 0.3162 µM). In addition, the relative viability in assay [4] (first compound 0.0128 µM) is 0.335; in assay [4] (first compound 0.04048 µM), 0.309; in assay [4] (first compound 0.128 µM), 0.355; in assay [4] (first compound 1.28 µM), 0.269; in assay [5] (first compound 0.0128 µM), 0.481; in assay [5] (first compound 0.04048 µM) it was 0.489. Further, the relative viability in assay [5] (first compound 0.128 µM) came out at 0.412; in assay [5] (first compound 1.28 µM) it was 0.298.

On to Calu-6, for which the relative viability in assay [1] (first compound 0.0128 µM) is 0.916; in assay [1] (first compound 0.04048 µM) it was 0.893; in assay [1] (first compound 0.128 µM), 0.826; in assay [1] (first compound 1.28 µM), 0.76.
